US5348956A, “Substituted cyclopropylamino-1,3,5-triazines” (UCB S.A., priority 1991, dated 1994)

Key:
[1] = test system: bronchospasm induced by serotonin; test: bronchospasmolytic activity (Konzett and Roessler), bronchospasm induced by serotonin; assay type: in vivo, Dunkin-Hartley guinea-pig; settings: Cavia porcellus; intravenous; serotonin-induced bronchospasm; read-out: Doses (ID50), Serotonin
Procedure: (§1) This activity was measured in the Dunkin-Hartley guinea-pig by the method of H. KONZETT and […] (Naunyn Schmiedebergs Arch. exp. Path. […] The anesthetized (urethane) and curarized (gallamine) guinea-pig is placed under assisted respiration. The endotracheal pressure is recorded. […] The compound to be tested is also administered intravenously two minutes before the administration of the spasmogen and then in 3 to 4 cumulative doses in increasing amounts at intervals of 15 minutes. Six animals per compound to be tested and per spasmogen are used.

[2] = test system: bronchospasm induced by histamine; test: bronchospasmolytic activity (Konzett and Roessler), bronchospasm induced by histamine; assay type: in vivo, Dunkin-Hartley guinea-pig; settings: Cavia porcellus; intravenous; histamine-induced bronchospasm; read-out: Doses (ID50), Histamine
Procedure: as §1

[3] = test system: bronchospasm induced by acetylcholine; test: bronchospasmolytic activity (Konzett and Roessler), bronchospasm induced by acetylcholine; assay type: in vivo, Dunkin-Hartley guinea-pig; settings: Cavia porcellus; intravenous; acetylcholine-induced bronchospasm; read-out: Doses (ID50), Acetylcholine
Procedure: as §1

[4] = test system: anaphylactic release of histamine, guinea-pig lung sections; test: inhibition of the anaphylactic release of histamine (proper effect); assay type: cell-based, Dunkin-Hartley guinea-pigs; settings: Cavia porcellus, in vitro, read-out: Minimum inhibitory dose (MID)
Procedure: (§2) Dunkin-Hartley guinea-pigs which are first passively sensitized by an intravenous injection of 1 ml of isologous antiovalbumin serum are used. Twenty-four hours after the injection, the lungs are then perfused with a Tyrode buffer to evacuate the blood, and then removed and cut into sections of 1 mm. These sections are divided up into test tubes (3 sections per tube) to give 10 experimental groups of lung sections per guinea-pig. A "positive" control group of lung sections is stimulated by addition of an ovalbumin solution (0.1 mg/ml) to induce the anaphylactic release of histamine and serves to determine the maximum amount of histamine (100%) which can be released. A "negative" control group which is not stimulated by ovalbumin serves to determine the naturally released amount of histamine (spontaneous release). In three other groups, the lung sections are incubated at 37° C. for 30 minutes in the ovalbumin solution in the presence of three different doses of the compound to be tested (one dose per group). […] At this dose, isoprenaline inhibits the release of histamine by 30 to 40%, which is verified on a control group treated only with isoprenaline alone at this dose. In addition, a supplementary control group which is not stimulated by ovalbumin is used to detect a possible spontaneous release of histamine by the highest dose of the compound tested. In each group, the histamine released in the incubation medium is measured by spectrofluorometry (D. P. EVANS et al., Life Sci., 12, (1973), 327-336).

[5] = test system: anaphylactic release of histamine, guinea-pig lung sections; test: potentiation of the inhibition of anaphylactic histamine release by isoprenaline; assay type: cell-based, Dunkin-Hartley guinea-pigs; settings: with isoprenaline 10^-7 mole per liter
Procedure: as §2

[6] = test system: longitudinal muscles of the ileum contracted by histamine; test: potentiation of the myorelaxing effect of isoprenaline on the ileum; assay type: cell-based, Dunkin-Hartley guinea-pigs; settings: with isoprenaline 10^-7 mole/l; histamine 3.2 μmoles/l
Procedure: (cf. R. A. TURNER, "Screening Methods in Pharmacology", Ed. Acad. Press, San Diego, 1965, chapter IV, pages 43-47). […] Inhibition cycle: When the successive contractions induced by the histamine injections have become reproducible, the compound to be tested is injected immediately after the second wash. The contraction induced by the following injection of histamine is measured and compared with the average of the three preceding contractions caused by the repeated injections of histamine (control contractions). From the result obtained, the percentage inhibition of the contraction is calculated. Several cycles of histamine injection are then performed again, until the contractions of the muscle become reproducible again; the muscle is then ready for testing of another compound. The potentiating effect of a compound is measured in the course of a so-called "potentiation" cycle, which comprises three successive inhibition cycles. […] In the course of the second inhibition cycle, the percentage inhibition of the contraction obtained with the compound to be tested, injected alone at a given dose, is determined. In the third inhibition cycle, isoprenaline and the compound to be tested are injected simultaneously, and the percentage inhibition of the contraction is calculated for the dose used of the compound tested. The same experiments are repeated for each of the doses of the compounds tested.

[7] = test system: PMN granulocytes; test: inhibition of the stimulation of PMN granulocytes (chemiluminescence); assay type: cell-based, Rat; settings: Rattus norvegicus; 10^-6 mole/l; FMLP 3.2×10^-7 mole/liter; read-out: Residual chemiluminescence
Description: Polymorphonuclear neutrophil granulocytes (PMN) are cells which are mobilized during inflammatory phenomena and which can be stimulated by various compounds, such as, for example, formylmethionyl-leucylphenylalanine (FMLP) or prostaglandins E (PGE1). The PMN granulocytes respond to these extracellular stimuli with an activation of the oxygen metabolism with release of toxic oxygenated metabolites. An excessive response of the PMN granulocytes may be the cause of a painful inflammation and is also accompanied by a reduction in the level of cyclic adenosine monophosphate (cAMP) in these granulocytes. Consequently, compounds which inhibit the respiratory burst of PMN granulocytes or which increase the level of cAMP can be regarded as very important in the treatment of arthritis and asthma. […] Rat PMN granulocytes (5×10^6 /ml) are preincubated in a phosphate buffer ([…], pH 7.4), containing luminol at a concentration of 10^-5 mole per liter, for 15 minutes at 37° C. and then for 5 minutes in the presence of the compound to be treated at a concentration of 10^-6 mole/liter. […] The luminescence which results from the stimulation is measured by means of an LKB 1251 luminometer according to the method of […] and […] (Infection and Immunology, 37, (1982), 34-39). An experimental cycle lasts 38 seconds. The reaction is repeated 9 times for each compound to be tested and the average of the results obtained is calculated.

[8] = toxicity, Irwin's test; assay type: in vivo; settings: i.p.; death of two animals out of three within 48 hours
Procedure: Progressive doses of the compound to be tested are administered intraperitoneally to groups of three mice until the lethal dose is reached (dose which causes the death of two animals out of three within 48 hours).

[9] = test system: amnesia induced by scopolamine; test: multiple-trial passive avoidance: mnemic retention, amnesia induced by scopolamine
Procedure: To this end, the method of multiple-trial passive avoidance has been used. […] The test is carried out on male Sprague-Dawley rats (160-200 g). which are kept in standard cages throughout the experiment. The apparatus used is a transparent square cage with 35 cm sides and 25 cm high, fitted with a grid floor which can be electrified. A rubber insulating mat (10×17 cm) is placed on the floor in one of the corners of the cage.
Each animal is subjected to four tests at times 0, 4, 24 and 28 hours. In the first test (time 0), the animal is placed on the rubber mat and the time which it takes to decide to leave this position to explore the cage is recorded. After 20 seconds of exploration, the rat receives an electric shock (3 seconds duration) in the paws, causing an escape reaction. The rat is immediately removed from the apparatus and replaced in its original cage. In the course of the three subsequent tests (times: 4, 24 and 28 hours), the animal is replaced on the rubber mat and the time taken to leave this position is recorded. As soon as the four paws of the animal rest on the grid, it receives an electric shock and is removed immediately from the apparatus.
At the start of the experiment, the rats are divided into 4 homogeneous groups of 15 animals. Thirty minutes before each test, each group of animals is subjected to a predetermined treatment:
Groups 1 and 2 are used in the first experiment (learning) and groups 3 and 4 in the second experiment (mnemic retention).
The differences found are analyzed statistically by the Mann-Whitney method.

[10] = 4 hours, 1.0 mg/kg i.p. + 0.5 mg scopolamine
[11] = 24 hours, 1.0 mg/kg i.p. + 0.5 mg scopolamine
[12] = 28 hours, 1.0 mg/kg i.p. + 0.5 mg scopolamine
[13] = time 0, 1.0 mg/kg i.p. + 0.5 mg scopolamine

Row | SMILES | ED50 [1] [µmol/kg] | ED50 [2] [µmol/kg] | ED50 [3] [µmol/kg] | minimal effective concentration [4] [µM] | Minimum potentiating dose (MPD) [5] [µmol/L] | Minimum potentiating dose (MPD) [6] [µmol/L] | activity at 1 µM [7] [%] | Lethal dose [8] [mg/kg] | other results
1 | CC(C)c1nc(NC2CC2)nc(N2CC3CCC(C2)O3)n1 [Compound 12] | 0.06 | 0.04 | 0.2 | 0.1 | 0.1 | 0.01 | 36 | 325.8 | Period of remaining on the mat, group 4 [9, 10]: 18.0 s; Period of remaining on the mat, group 4 [9, 11]: 51.1 s; Period of remaining on the mat, group 4 [9, 12]: 94.5 s; Period of remaining on the mat, group 4 [9, 13]: 3.6 s
2 | CCc1nc(NC2CC2)nc(N2CCOCC2)n1 [Compound 2] | 0.5 | 0.3 | 0.5 | 1 | 3.2 | 1.0 | 68 | 285 | Period of remaining on the mat, group 4 [9, 10]: 18.9 s; Period of remaining on the mat, group 4 [9, 11]: 24.3 s; Period of remaining on the mat, group 4 [9, 12]: 36.5 s; Period of remaining on the mat, group 4 [9, 13]: 7.9 s
3 | OCCN(CCO)c1nc(NC2CC2)nc(C2CC2)n1 [Compound 7] | 0.4 | 0.2 | 0.7 | 0.32 | 1.0 | 0.32 | 54 | 279.3 | Period of remaining on the mat, group 4 ([9]; 4 hours, 2.8 mg/kg i.p. + 0.5 mg scopolamine): 34.5 s; Period of remaining on the mat, group 4 ([9]; 24 hours, 2.8 mg/kg i.p. + 0.5 mg scopolamine): 94.0 s; Period of remaining on the mat, group 4 ([9]; 28 hours, 2.8 mg/kg i.p. + 0.5 mg scopolamine): 133.0 s; Period of remaining on the mat, group 4 ([9]; time 0, 2.8 mg/kg i.p. + 0.5 mg scopolamine): 9.8 s
4 | CCCc1nc(NC2CC2)nc(N2CC3CCC(C2)O3)n1 [Compound 11] | 0.1 | 0.1 | 0.09 | 1 | 0.32 | 0.032 | 44 | 325.8 | Period of remaining on the mat, group 4 ([9]; 4 hours, 3.3 mg/kg i.p. + 0.5 mg scopolamine): 21.4 s; Period of remaining on the mat, group 4 ([9]; 24 hours, 3.3 mg/kg i.p. + 0.5 mg scopolamine): 58.6 s; Period of remaining on the mat, group 4 ([9]; 28 hours, 3.3 mg/kg i.p. + 0.5 mg scopolamine): 93.2 s; Period of remaining on the mat, group 4 ([9]; time 0, 3.3 mg/kg i.p. + 0.5 mg scopolamine): 10.7 s
5 | OC1CN(c2nc(NC3CC3)nc(C3CC3)n2)C1 [Compound 13] | 0.6 | 0.1 | 1.3 | 1 | 1.0 | 1.0 | 79 | 247.3 | Period of remaining on the mat, group 4 ([9]; 4 hours, 2.5 mg/kg i.p. + 0.5 mg scopolamine): 55.3 s; Period of remaining on the mat, group 4 ([9]; 24 hours, 2.5 mg/kg i.p. + 0.5 mg scopolamine): 92.5 s; Period of remaining on the mat, group 4 ([9]; 28 hours, 2.5 mg/kg i.p. + 0.5 mg scopolamine): 99.0 s; Period of remaining on the mat, group 4 ([9]; time 0, 2.5 mg/kg i.p. + 0.5 mg scopolamine): 7.7 s
6 | CCCc1nc(NC2CC2)nc(N2CCOCC2)n1 [Compound 1, 2-Cyclopropylamino-4-morpholino-6-n-propyl-1,3,5-triazine] | 0.01 | 0.01 | 0.1 | 0.1 | 0.32 | 0.032 | 47 | 898 | Period of remaining on the mat, group 4 ([9]; 4 hours, 3.0 mg/kg i.p. + 0.5 mg scopolamine): 42.8 s; Period of remaining on the mat, group 4 ([9]; 24 hours, 3.0 mg/kg i.p. + 0.5 mg scopolamine): 77.2 s; Period of remaining on the mat, group 4 ([9]; 28 hours, 3.0 mg/kg i.p. + 0.5 mg scopolamine): 114.6 s; Period of remaining on the mat, group 4 ([9]; time 0, 3.0 mg/kg i.p. + 0.5 mg scopolamine): 19.2 s
7 | CCCc1nc(NC2CC2)nc(N(CCO)CCO)n1 [Compound 6] | 0.1 | 0.1 | 0.3 | 1 | 1.0 | 1.0 | 55 | 635.6 | Period of remaining on the mat, group 4 ([9]; 4 hours, […] i.p. + 0.5 mg scopolamine): 11.7 s; Period of remaining on the mat, group 4 ([9]; 24 hours, […] i.p. + 0.5 mg scopolamine): 24.8 s; Period of remaining on the mat, group 4 ([9]; 28 hours, […] i.p. + 0.5 mg scopolamine): 28.7 s; Period of remaining on the mat, group 4 ([9]; time 0, […] i.p. + 0.5 mg scopolamine): 5.3 s
8 | COC1CN(c2nc(NC3CC3)nc(C3CC3)n2)C1 [Compound 14] | 0.2 | 0.09 | 0.5 | 1 | 0.32 | 1.0 | 51 | 156.8 | Period of remaining on the mat, group 4 ([9]; 4 hours, 2.6 mg/kg i.p. + 0.5 mg scopolamine): 36.3 s; Period of remaining on the mat, group 4 ([9]; 24 hours, 2.6 mg/kg i.p. + 0.5 mg scopolamine): 73.9 s; Period of remaining on the mat, group 4 ([9]; 28 hours, 2.6 mg/kg i.p. + 0.5 mg scopolamine): 139.1 s; Period of remaining on the mat, group 4 ([9]; time 0, 2.6 mg/kg i.p. + 0.5 mg scopolamine): 11.7 s
